From publication PMC12512182, “Unveiling the Structural and Biochemical Characteristics of an Acidophilic β‑Mannanase from Soybean (Glycine max)” (Journal of Agricultural and Food Chemistry, 2025)

Biological target: T1, GmMAN19-1 (Glycine max, UniProt I1NBK5, Q294W)
T1 construct: gene LOC100787923; mature form, signal peptide 1-27 removed; pGEX-4T-1 (EcoRI/XhoI) N-terminal GST fusion from E. coli BL21(DE3), GST cut with thrombin leaving N-terminal Gly-Ser; ~40 kDa; 371 residues in the crystal structure
T1 sequence (I1NBK5 28-410 Q294W): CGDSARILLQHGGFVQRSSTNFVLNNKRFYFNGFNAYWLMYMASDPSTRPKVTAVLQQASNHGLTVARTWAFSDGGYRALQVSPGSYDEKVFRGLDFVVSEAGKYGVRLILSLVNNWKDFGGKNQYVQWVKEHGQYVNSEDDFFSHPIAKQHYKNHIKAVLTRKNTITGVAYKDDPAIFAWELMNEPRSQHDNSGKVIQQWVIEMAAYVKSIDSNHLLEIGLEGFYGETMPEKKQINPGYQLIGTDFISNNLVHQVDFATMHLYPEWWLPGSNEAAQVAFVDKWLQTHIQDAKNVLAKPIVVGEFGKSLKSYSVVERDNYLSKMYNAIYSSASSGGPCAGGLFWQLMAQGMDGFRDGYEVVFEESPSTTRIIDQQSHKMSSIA
Assay: TLC product profile of M5 conversion
Assay type: biochemical
Settings: 1 μM enzyme, 25 mM M5, pH 4.6, 40 °C (optimal assay conditions); hydrolysis and transglycosylation

For OC[C@H]1O[C@@H](O[C@H]2[C@H](O)[C@H](O)[C@H](O[C@H]3[C@H](O)[C@H](O)[C@H](O[C@H]4[C@H](O)[C@H](O)[C@H](O[C@H]5[C@H](O)[C@H](O)C(O)O[C@@H]5CO)O[C@@H]4CO)O[C@@H]3CO)O[C@@H]2CO)[C@@H](O)[C@@H](O)[C@@H]1O (stereo partly shown) [M5, mannopentaose], the “TLC product profile of M5 conversion” value was “the Q267W mutant displayed an altered transglycosylation profile, generating shorter-chain oligosaccharides”.
